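How tested: cells in 96-well plates exposed to compound for 48 hours at five concentrations. GI50 is the concentration that inhibits growth by half. TGI: concentration producing complete growth inhibition.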
Legend:
Test in all cases: NCI anticancer screen, dose series, 48 h; in the data active = GI50 below about 0.43 µM; inactive = the rest
[1] = test system: OVCAR-8 ovarian
[2] = test system: OVCAR-3 ovarian
[3] = test system: NCI/ADR-RES ovarian
[4] = test system: SN12C renal
[5] = test system: HT29 colon
[6] = test system: CCRF-CEM leukemia
[7] = test system: RXF 393 renal
[8] = test system: SNB-75 CNS
[9] = test system: MCF7 breast
[10] = test system: SNB-19 CNS
[11] = test system: HOP-62 NSCLC
[12] = test system: HCT-15 colon
[13] = test system: SR leukemia
[14] = test system: MALME-3M melanoma
[15] = test system: SK-OV-3 ovarian
[16] = test system: NCI-H460 lung
[17] = test system: CAKI-1 renal
[18] = test system: SF-295 CNS
[19] = test system: DU-145 prostate
[20] = test system: NCI-H23 lung
[21] = test system: HCT-116 colon
[22] = test system: HL-60(TB) leukemia
[23] = test system: A549 NSCLC
[24] = test system: OVCAR-4 ovarian
[25] = test system: K-562 leukemia
[26] = test system: PC-3 prostate
[27] = test system: NCI-H522 lung
[28] = test system: M14 melanoma
[29] = test system: U251 CNS
[30] = test system: SK-MEL-28 melanoma
[31] = test system: SK-MEL-5 melanoma
[32] = test system: SF-268 CNS
[33] = test system: BT-549 breast
[34] = test system: UACC-62 melanoma
[35] = test system: EKVX NSCLC
[36] = test system: T-47D breast
[37] = test system: RPMI-8226 leukemia
[38] = test system: LOX IMVI melanoma
[39] = test system: IGROV1 ovarian
[40] = test system: ACHN renal
[41] = test system: COLO 205 colon
[42] = test system: KM12 colon
[43] = test system: UO-31 renal
[44] = test system: SF-539 CNS
[45] = test system: MOLT-4 leukemia
[46] = test system: SW-620 colon
[47] = test system: SK-MEL-2 melanoma
[48] = test system: HCC-2998 colon
[49] = test system: HOP-92 NSCLC
[50] = test system: UACC-257 melanoma
[51] = test system: MDA-MB-435
[52] = test system: OVCAR-5 ovarian
[53] = test system: TK-10 renal
[54] = test system: MDA-MB-231 breast
[55] = test system: HS 578T breast
[56] = test system: 786-0 renal

CNNC(=N\S(=O)(=O)c1cc(C)c(Cl)cc1SCc1ccccc1)/N=C/c1ccc([N+](=O)[O-])s1
> 100 µM: TGI [1] | TGI [2] | TGI [3] | TGI [4] | TGI [5] | TGI [6] | TGI [7] | TGI [8] | TGI [9] | TGI [10] | TGI [11] | TGI [12] | TGI [13] | TGI [15] | TGI [16] | TGI [17] | TGI [18] | TGI [19] | TGI [20] | TGI [21] | TGI [22] | TGI [23] | TGI [24] | TGI [25] | TGI [26] | TGI [27] | TGI [29] | TGI [30] | TGI [32] | TGI [33] | TGI [34] | TGI [35] | TGI [36] | TGI [38] | TGI [39] | TGI [40] | TGI [42] | TGI [43] | TGI [44] | TGI [45] | TGI [46] | TGI [47] | TGI [50] | TGI [51] | TGI [52] | TGI [53] | TGI [54] | TGI [55] | TGI [56]
> 45.3 µM: TGI [37]
> 78.5 µM: TGI [28]
active: GI50 [37] 0.422 µM
> 64.2 µM: TGI [14]
> 37.3 µM: TGI [31]
> 83.8 µM: TGI [49]
inactive: GI50 [1] > 100 µM | GI50 [2] > 44.1 µM | GI50 [3] > 100 µM | GI50 [4] > 100 µM | GI50 [5] 27.4 µM | GI50 [6] > 100 µM | GI50 [7] > 100 µM | GI50 [8] > 100 µM | GI50 [9] 97.9 µM | GI50 [10] > 100 µM | GI50 [11] > 100 µM | GI50 [13] 41.2 µM | GI50 [14] 1.18 µM | GI50 [15] > 100 µM | GI50 [16] > 64.1 µM | GI50 [17] > 100 µM | GI50 [18] > 87.7 µM | GI50 [19] > 100 µM | GI50 [20] > 100 µM | GI50 [21] 1.53 µM | GI50 [22] > 100 µM | GI50 [23] 59.2 µM | GI50 [24] > 100 µM | GI50 [25] 28.4 µM | GI50 [26] > 100 µM | GI50 [27] > 100 µM | GI50 [28] 9.97 µM | GI50 [29] > 100 µM | GI50 [30] > 100 µM | GI50 [31] 1.48 µM | GI50 [32] > 100 µM | GI50 [33] > 100 µM | GI50 [34] 47.9 µM | GI50 [35] > 29.6 µM | GI50 [36] > 100 µM | GI50 [38] > 77.2 µM | GI50 [39] > 100 µM | GI50 [40] > 100 µM | GI50 [41] 0.776 µM | GI50 [42] 3.03 µM | GI50 [43] > 100 µM | GI50 [44] > 100 µM | GI50 [45] > 100 µM | GI50 [46] 30.9 µM | GI50 [47] > 100 µM | GI50 [48] 1.29 µM | GI50 [49] 10.9 µM | GI50 [50] > 100 µM | GI50 [51] 18.5 µM | GI50 [52] > 100 µM | GI50 [53] > 74.9 µM | GI50 [54] > 56.7 µM | GI50 [55] > 100 µM | GI50 [56] > 100 µM

From PubChem BioAssay (NCI)
